In ChEMBL document CHEMBL1155743, “New bromoditerpenes from the red alga Sphaerococcus coronopifolius” (J Nat Prod, 2001) one finds MIC and IC50 data, which are given here for 3 molecules.

Converted amounts (≈) assume the structure as drawn.

The MIC is the smallest concentration in the dilution series that meets the test's criterion for growth inhibition. By IC50 is commonly meant the concentration at which inhibition is half-maximal. Low values mean greater potency in that assay, high ones weaker potency in that assay.

Assay [1] deals with Staphylococcus aureus. In words: Antibacterial activity against Staphylococcus aureus ATCC 6538 by disk diffusion assay. It counts as functional. (In general: Agar diffusion results depend on both activity and mobility in agar.)
The test system of assay [2] is Plasmodium falciparum. In words: Antimalarial activity against chloroquine-resistant Plasmodium falciparum FCB1 in human blood by [3H]hypoxanthine uptake. It counts as functional, organism-based.

Consider `CC(C)[C@@H]1C=C[C@H](O)[C@H]2[C@@H]3[C@](C)(O)[C@@H](O)C[C@H](Br)[C@@]3(C)CC[C@@]21CBr`, for which, in assay [1], 0.146 µM (≈ 0.0701 µg/mL) was the least that counted as inhibitory (MIC). This lies in the sub-micromolar range. In the case of `CC(C)[C@@H]1C=CC(=O)[C@H]2[C@@H]3[C@](C)(O)[C@@H](O)C[C@H](Br)[C@@]3(C)CC[C@]12CBr` [BROMOSPHAERONE], in assay [1], it took 0.104 µM (≈ 0.0497 µg/mL) to inhibit growth (MIC).

For `CC(C)[C@@H]1CC=C[C@H]2[C@H]3[C@@](C)(C=CC(=O)[C@@]3(C)O)CC[C@]12CBr` [SPHAEROCOCCENOL A], in assay [2], half-maximal inhibition (IC50) was put at 1000 nM.
